Here are results for 20 compounds from ChEMBL document CHEMBL4828734, “Discovery of High-Affinity Inhibitors of the BPTF Bromodomain” (J Med Chem, 2021).

The IC50 is the concentration that gives 50% inhibition. What is called Kd is the concentration at which binding is half-saturated. High values mean weaker binding, low ones tighter binding. In general, inhibition refers to how much of the control response was suppressed. For orientation: ΔTm means the shift of the melting midpoint relative to a reference. A word on the EC50: it is the concentration that produces a half-maximal response.

For data set [1], the target named is T1, Nucleosome-remodeling factor subunit BPTF (Homo sapiens, UniProt Q12830). Put plainly: Inhibition of N-terminal GST-tagged human BPTF (2914 to 3037 residues) expressed in Escherichia coli BL21-CodonPlus (DE3) cells by HTRF assay. For orientation: Time-resolved FRET reads energy transfer from a long-lived donor to a nearby acceptor.
Data set [2] concerns the target T1, Nucleosome-remodeling factor subunit BPTF.
Description: Binding affinity to BPTF (unknown origin) expressed in Escherichia coli BL21 (DE3) cells by SPR analysis
The target is the same in data set [3]. Put plainly: Binding affinity to BPTF (unknown origin).
Data set [4] concerns the target CREB-binding protein (Homo sapiens) (UniProt Q92793). Put plainly: Inhibition of CBP-BRD (unknown origin) at 1 uM using acetylated H4 as substrate incubated for 1 hr by AlphaScreen assay. For orientation: Alpha assays give light when donor and acceptor beads are brought close together.
Data set [5] has as its target T1, Nucleosome-remodeling factor subunit BPTF. Nature of the data set: Binding affinity to N-terminal GST-tagged human BPTF (2914 to 3037 residues) expressed in Escherichia coli BL21-CodonPlus (DE3) cells by SPR assay. (In general: SPR reads the build-up and loss of mass on a sensor chip optically.)
Another data set has as its system HUVEC. Put plainly: Cytotoxicity against HUVEC assessed as reduction in cell viability at 100 uM after 3 days by Celltiter-Glo assay. Type of data set: cell-based. As to conditions: human, 72 h, time 3 day.
In data set [6] the target is Bromodomain-containing protein 2 (Homo sapiens) (UniProt P25440). Nature of the data set: Inhibition of BRD2-BD2 (unknown origin) at 1 uM using acetylated H4 as substrate incubated for 1 hr by AlphaScreen assay.
Data set [7] has as its system MV4-11. Put plainly: Induction of apoptosis in human MV4-11 cells at 5 to 20 uM after 24 hrs by Annexin V-FITC and propidium iodide staining based flow cytometry analysis. The format is functional, cell-based. As to conditions: dose 5-20 µM.
The target of data set [8] is CREB-binding protein (Homo sapiens) (UniProt Q92793). Nature of the data set: Binding affinity to CBP-BRD (unknown origin) assessed as change in melting temperature at 50 uM by thermal shift assay.
The target of data set [9] is Bromodomain-containing protein 4 (Homo sapiens) (UniProt O60885). Nature of the data set: Inhibition of BRD4-BD2 (unknown origin) at 1 uM using acetylated H4 as substrate incubated for 1 hr by AlphaScreen assay.
In data set [10] the target is Bromodomain-containing protein 2 (Homo sapiens) (UniProt P25440). Put plainly: Inhibition of BRD2-BD1 (unknown origin) at 1 uM using acetylated H4 as substrate incubated for 1 hr by AlphaScreen assay.
Data set [11] has as its system MV4-11. Nature of the data set: Downregulation of c-Myc protein expression in human MV4-11 cells after 24 hrs by Western blot analysis. The format is functional, cell-based. As to conditions: dose 0.6-50 µM.
The target of data set [12] is Histone acetyltransferase p300 (Homo sapiens) (UniProt Q09472). Nature of the data set: Binding affinity to p300-BRD (unknown origin) assessed as change in melting temperature at 50 uM by thermal shift assay.
Data set [13] deals with SWI/SNF-related matrix-associated actin-dependent regulator of chromatin subfamily A member 2 (Homo sapiens) (UniProt P51531). Put plainly: Binding affinity to SMARCA2-BRD (unknown origin) assessed as change in melting temperature at 50 uM by thermal shift assay.
The target is the same in data set [14]. Put plainly: Inhibition of SMARCA2-BRD (unknown origin) at 1 uM using acetylated H4 as substrate incubated for 1 hr by AlphaScreen assay.
Data set [15] deals with T1, Nucleosome-remodeling factor subunit BPTF. Nature of the data set: Binding affinity to N-terminal GST-tagged human BPTF (2914 to 3037 residues) expressed in Escherichia coli BL21-CodonPlus (DE3) cells assessed as change in melting temperature at 25 uM by thermal shift assay.
Data set [16] deals with Bromodomain-containing protein 2 (Homo sapiens) (UniProt P25440). Nature of the data set: Binding affinity to BRD2-BD2 (unknown origin) assessed as change in melting temperature at 50 uM by thermal shift assay.
The target of data set [17] is T1, Nucleosome-remodeling factor subunit BPTF. Nature of the data set: Binding affinity to N-terminal GST-tagged human BPTF (2914 to 3037 residues) expressed in Escherichia coli BL21-CodonPlus (DE3) cells at 200 uM by STD NMR spectroscopy.
Data set [18] shares this target. Nature of the data set: Inhibition of BPTF in human MV4-11 cells assessed as reduction in CDK6 mRNA level incubated for 24 hrs by RT-PCR analysis. As to conditions: dose 2.5-20 µM. Type of data set: cell-based.
The target in data set [19] is Histone acetyltransferase p300 (Homo sapiens) (UniProt Q09472). Nature of the data set: Inhibition of p300-BRD (unknown origin) at 1 uM using acetylated H4 as substrate incubated for 1 hr by AlphaScreen assay.
Data set [20] deals with Bromodomain-containing protein 2 (Homo sapiens) (UniProt P25440). Put plainly: Binding affinity to BRD2-BD1 (unknown origin) assessed as change in melting temperature at 50 uM by thermal shift assay.
For data set [21], the system named is MV4-11. Put plainly: Induction of cell cycle arrest in human MV4-11 cells assessed as accumulation at G1 phase after 24 hrs by propidium iodide staining based flow cytometry analysis. The note with it: dose 5-20 µM. Type of data set: functional.
The target of data set [22] is Bromodomain-containing protein 4 (Homo sapiens) (UniProt O60885). Nature of the data set: Binding affinity to BRD4-BD1 (unknown origin) assessed as change in melting temperature at 50 uM by thermal shift assay.
Data set [23] has as its system MV4-11. Put plainly: Induction of cell cycle arrest in human MV4-11 cells assessed as accumulation at S phase after 24 hrs by propidium iodide staining based flow cytometry analysis. The format is functional.
The target in data set [24] is T1, Nucleosome-remodeling factor subunit BPTF. Nature of the data set: Binding affinity to N-terminal GST-tagged human BPTF (2914 to 3037 residues) expressed in Escherichia coli BL21-CodonPlus (DE3) cells assessed as change in melting temperature at 100 uM by thermal shift assay.
Data set [25] addresses Bromodomain-containing protein 4 (Homo sapiens) (UniProt O60885). Nature of the data set: Inhibition of BRD4-BD1 (unknown origin) at 1 uM using acetylated H4 as substrate incubated for 1 hr by AlphaScreen assay.
The subject of the next data set is MRC5. Nature of the data set: Cytotoxicity against human MRC5 assessed as reduction in cell viability at 100 uM after 3 days by Celltiter-Glo assay. The note with it: mrc5, 72 h, time 3 day. The format is cell-based.
Data set [26] has as its target T1, Nucleosome-remodeling factor subunit BPTF. Put plainly: Inhibition of BPTF in human MV4-11 cells assessed as reduction in c-Myc mRNA level incubated for 24 hrs by RT-PCR analysis. The format is cell-based. As to conditions: dose 2.5-20 µM.
For data set [27] the target is unchanged. Put plainly: Binding affinity to N-terminal GST-tagged human BPTF (2914 to 3037 residues) expressed in Escherichia coli BL21-CodonPlus (DE3) cells at 200 uM by CPMG NMR spectroscopy.
Data set [28] has the same target. Put plainly: Inhibition of BPTF in human MV4-11 cells assessed as reduction in bcl2 mRNA level incubated for 24 hrs by RT-PCR analysis. The format is cell-based. As to conditions: dose 2.5-20 µM.
Data set [29] has the same target. Nature of the data set: Inhibition of N-terminal GST-tagged human BPTF (2914 to 3037 residues) expressed in Escherichia coli BL21-CodonPlus (DE3) cells at 1 uM incubated for 1 hr by AlphaScreen assay relative to control.
Data set [30] has as its system MV4-11. Nature of the data set: Antiproliferative activity against human MC4-11 cells assessed as reduction in cell viability after 5 days by Celltiter-Glo assay. As to conditions: MV4-11, 120 h.
Data set [31] concerns the target T1, Nucleosome-remodeling factor subunit BPTF. Put plainly: Binding affinity to N-terminal GST-tagged human BPTF (2914 to 3037 residues) expressed in Escherichia coli BL21-CodonPlus (DE3) cells assessed as change in melting temperature at 50 uM by thermal shift assay.
The target of data set [32] is Bromodomain-containing protein 4 (Homo sapiens) (UniProt O60885). Nature of the data set: Binding affinity to BRD4-BD2 (unknown origin) assessed as change in melting temperature at 50 uM by thermal shift assay.
Data set [33] deals with T1, Nucleosome-remodeling factor subunit BPTF. Put plainly: Displacement of Halo-tagged histone H4 from NanoLuc-tagged BPTF (unknown origin) expressed in HEK293 cells by NanoBRET assay. The format is cell-based.
Data set [34] shares this target. Put plainly: Binding affinity to N-terminal GST-tagged human BPTF (2914 to 3037 residues) expressed in Escherichia coli BL21-CodonPlus (DE3) cells assessed as change in melting temperature at 12.5 uM by thermal shift assay.

Activity calls are given as the source filed them. The calls are words filed in the database; no cut-off is given here.

Bromodomain-containing protein 2 (Homo sapiens), sequence (P25440 whole entry, looked up, the tested form may be a part): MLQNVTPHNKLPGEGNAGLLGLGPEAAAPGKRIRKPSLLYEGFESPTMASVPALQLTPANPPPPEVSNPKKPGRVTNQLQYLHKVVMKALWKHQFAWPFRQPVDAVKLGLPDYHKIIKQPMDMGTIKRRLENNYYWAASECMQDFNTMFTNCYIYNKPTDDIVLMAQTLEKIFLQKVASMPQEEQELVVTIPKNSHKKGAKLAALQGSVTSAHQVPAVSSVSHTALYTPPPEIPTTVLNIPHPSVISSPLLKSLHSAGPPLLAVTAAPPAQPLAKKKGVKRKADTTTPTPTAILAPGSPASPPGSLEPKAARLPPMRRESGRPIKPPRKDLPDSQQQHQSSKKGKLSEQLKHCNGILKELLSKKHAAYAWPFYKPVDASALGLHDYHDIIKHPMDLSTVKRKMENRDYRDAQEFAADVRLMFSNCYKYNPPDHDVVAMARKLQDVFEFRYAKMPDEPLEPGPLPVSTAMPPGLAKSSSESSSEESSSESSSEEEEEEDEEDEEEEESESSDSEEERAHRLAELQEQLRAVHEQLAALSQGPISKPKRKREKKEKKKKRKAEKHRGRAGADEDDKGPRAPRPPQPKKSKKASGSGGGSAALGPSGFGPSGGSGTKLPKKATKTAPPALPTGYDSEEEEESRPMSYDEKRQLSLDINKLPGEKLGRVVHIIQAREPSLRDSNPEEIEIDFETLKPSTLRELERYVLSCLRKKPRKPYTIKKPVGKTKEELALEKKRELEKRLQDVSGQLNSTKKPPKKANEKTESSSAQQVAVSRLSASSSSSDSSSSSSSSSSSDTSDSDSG
SWI/SNF-related matrix-associated actin-dependent regulator of chromatin subfamily A member 2 (Homo sapiens), sequence (P51531 whole entry): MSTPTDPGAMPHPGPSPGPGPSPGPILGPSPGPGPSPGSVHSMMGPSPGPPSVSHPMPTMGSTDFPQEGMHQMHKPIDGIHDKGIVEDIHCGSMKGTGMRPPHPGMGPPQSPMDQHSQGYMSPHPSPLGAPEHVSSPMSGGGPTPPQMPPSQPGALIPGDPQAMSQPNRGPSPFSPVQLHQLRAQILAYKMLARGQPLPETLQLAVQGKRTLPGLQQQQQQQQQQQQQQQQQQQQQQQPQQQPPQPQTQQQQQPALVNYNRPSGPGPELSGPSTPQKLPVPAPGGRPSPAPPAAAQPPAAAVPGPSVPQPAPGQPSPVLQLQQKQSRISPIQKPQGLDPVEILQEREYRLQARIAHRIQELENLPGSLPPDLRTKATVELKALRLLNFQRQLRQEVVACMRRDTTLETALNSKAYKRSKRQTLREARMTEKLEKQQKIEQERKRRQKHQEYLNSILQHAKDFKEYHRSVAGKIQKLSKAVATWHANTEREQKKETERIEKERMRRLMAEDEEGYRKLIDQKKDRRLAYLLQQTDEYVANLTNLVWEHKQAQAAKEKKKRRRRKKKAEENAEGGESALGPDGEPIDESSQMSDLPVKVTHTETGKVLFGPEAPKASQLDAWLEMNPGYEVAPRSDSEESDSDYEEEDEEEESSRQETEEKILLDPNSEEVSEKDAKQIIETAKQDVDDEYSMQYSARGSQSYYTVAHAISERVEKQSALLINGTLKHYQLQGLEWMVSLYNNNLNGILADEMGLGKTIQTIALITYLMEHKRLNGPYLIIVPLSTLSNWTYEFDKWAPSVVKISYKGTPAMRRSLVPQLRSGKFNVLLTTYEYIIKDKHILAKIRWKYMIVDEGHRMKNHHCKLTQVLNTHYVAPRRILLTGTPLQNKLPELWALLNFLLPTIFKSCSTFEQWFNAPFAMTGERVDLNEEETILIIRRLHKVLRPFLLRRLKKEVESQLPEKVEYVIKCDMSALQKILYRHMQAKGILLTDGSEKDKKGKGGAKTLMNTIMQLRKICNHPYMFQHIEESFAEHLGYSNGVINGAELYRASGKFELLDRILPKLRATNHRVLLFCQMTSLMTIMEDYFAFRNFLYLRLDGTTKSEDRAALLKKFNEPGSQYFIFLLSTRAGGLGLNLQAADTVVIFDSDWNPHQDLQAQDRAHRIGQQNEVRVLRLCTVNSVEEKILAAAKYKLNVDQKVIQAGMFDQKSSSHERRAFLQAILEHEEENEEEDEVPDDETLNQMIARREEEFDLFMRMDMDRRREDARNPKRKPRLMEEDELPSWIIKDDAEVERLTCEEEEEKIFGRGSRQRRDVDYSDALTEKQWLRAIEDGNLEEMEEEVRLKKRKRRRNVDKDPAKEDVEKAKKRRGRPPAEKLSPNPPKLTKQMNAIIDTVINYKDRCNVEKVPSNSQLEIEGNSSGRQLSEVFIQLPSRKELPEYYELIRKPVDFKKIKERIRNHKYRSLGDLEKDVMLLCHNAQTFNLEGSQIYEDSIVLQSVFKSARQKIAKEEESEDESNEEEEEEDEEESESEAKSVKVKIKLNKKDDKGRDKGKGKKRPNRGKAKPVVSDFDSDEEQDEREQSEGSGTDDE
CREB-binding protein (Homo sapiens), sequence (Q92793 2-2442 limits assumed): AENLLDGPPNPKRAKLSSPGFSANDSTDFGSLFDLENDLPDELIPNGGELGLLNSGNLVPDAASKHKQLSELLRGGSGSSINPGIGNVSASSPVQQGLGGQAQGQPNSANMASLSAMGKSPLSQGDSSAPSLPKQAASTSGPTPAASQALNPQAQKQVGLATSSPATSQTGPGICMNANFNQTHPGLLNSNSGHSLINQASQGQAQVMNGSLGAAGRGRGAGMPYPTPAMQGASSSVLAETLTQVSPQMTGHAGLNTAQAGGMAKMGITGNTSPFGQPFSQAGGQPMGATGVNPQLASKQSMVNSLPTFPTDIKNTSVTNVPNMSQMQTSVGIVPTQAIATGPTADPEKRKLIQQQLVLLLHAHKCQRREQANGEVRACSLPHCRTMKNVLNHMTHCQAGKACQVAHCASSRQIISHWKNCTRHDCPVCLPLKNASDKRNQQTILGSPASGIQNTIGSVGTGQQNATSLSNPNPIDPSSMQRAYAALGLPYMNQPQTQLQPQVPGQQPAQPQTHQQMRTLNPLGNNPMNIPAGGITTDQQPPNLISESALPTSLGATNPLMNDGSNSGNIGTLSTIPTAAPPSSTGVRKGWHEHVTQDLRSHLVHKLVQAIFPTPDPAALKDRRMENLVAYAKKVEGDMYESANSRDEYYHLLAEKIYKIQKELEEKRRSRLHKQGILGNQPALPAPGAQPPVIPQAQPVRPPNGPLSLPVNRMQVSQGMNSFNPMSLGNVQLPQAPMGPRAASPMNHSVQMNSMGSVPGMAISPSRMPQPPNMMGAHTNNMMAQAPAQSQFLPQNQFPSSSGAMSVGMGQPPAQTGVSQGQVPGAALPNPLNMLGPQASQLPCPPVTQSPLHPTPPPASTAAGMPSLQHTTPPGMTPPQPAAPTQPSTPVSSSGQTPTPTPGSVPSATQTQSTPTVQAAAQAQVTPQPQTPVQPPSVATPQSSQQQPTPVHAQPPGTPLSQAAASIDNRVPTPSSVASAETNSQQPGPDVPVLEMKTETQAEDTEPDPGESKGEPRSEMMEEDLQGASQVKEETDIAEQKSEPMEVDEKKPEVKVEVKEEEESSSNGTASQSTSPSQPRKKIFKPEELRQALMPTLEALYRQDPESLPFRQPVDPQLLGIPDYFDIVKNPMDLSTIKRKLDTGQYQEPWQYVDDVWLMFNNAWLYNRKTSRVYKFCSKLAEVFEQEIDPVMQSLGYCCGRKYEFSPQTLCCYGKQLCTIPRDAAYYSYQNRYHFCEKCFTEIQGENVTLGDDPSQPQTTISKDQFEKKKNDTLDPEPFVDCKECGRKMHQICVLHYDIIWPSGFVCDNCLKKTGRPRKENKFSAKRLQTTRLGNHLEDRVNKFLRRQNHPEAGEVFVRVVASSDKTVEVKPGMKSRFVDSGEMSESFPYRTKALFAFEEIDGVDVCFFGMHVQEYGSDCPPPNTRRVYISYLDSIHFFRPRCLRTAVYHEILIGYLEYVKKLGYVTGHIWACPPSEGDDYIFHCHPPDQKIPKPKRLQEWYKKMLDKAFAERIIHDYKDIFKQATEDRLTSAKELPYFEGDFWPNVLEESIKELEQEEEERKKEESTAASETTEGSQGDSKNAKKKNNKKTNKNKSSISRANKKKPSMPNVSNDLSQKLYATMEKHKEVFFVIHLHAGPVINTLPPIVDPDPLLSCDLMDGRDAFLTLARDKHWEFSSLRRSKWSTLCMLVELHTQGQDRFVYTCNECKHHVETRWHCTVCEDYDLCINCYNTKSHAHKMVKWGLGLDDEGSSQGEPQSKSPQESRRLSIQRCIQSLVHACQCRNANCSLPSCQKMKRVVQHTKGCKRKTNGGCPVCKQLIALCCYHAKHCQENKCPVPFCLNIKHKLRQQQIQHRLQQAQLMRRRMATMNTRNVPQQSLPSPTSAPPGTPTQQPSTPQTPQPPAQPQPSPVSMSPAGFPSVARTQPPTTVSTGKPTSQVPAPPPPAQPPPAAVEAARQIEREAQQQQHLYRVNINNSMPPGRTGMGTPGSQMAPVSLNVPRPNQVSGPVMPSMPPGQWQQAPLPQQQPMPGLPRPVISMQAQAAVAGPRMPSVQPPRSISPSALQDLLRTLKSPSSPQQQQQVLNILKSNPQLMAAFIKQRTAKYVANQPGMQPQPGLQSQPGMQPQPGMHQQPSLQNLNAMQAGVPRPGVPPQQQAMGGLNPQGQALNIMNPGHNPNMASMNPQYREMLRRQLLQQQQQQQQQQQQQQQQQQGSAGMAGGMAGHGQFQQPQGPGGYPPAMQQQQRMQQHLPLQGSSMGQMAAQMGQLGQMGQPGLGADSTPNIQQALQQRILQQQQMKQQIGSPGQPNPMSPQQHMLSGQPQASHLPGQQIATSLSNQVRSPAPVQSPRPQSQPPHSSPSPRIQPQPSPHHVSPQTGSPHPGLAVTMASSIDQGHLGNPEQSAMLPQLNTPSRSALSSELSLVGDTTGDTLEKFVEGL

Compound `CNc1cc(-c2ccc3c(ccn3CCCN(C)C)c2)nc(S(C)(=O)=O)n1` returned a half-maximal inhibitory concentration (IC50) in [1] of 32.7 nM.

For the compound `CNc1cc(-c2ccc3c(ccn3CCN(C)C)c2)nc(S(C)(=O)=O)n1`, the IC50 in data set [1] stood at 36.9 nM.

As to `CN(C)CCCOc1ccc(-c2cc(NCCCn3cccn3)nc(S(C)(=O)=O)n2)cc1`, the Kd in data set [2] is 200 nM; in data set [3] it was 120 nM.

For `CCCNc1cc(-c2ccc3c(c2)c(C)cn3CCCN(C)C)nc(S(C)(=O)=O)n1`, the half-maximal inhibitory concentration (IC50) in [1] came out at 58.6 nM.

In turn, `Cc1cn(CCCN(C)C)c2ccc(-c3nc(S(C)(=O)=O)nc4[nH]ccc34)cc12` gave an IC50 in data set [1] of 157 nM.

For the compound `CN(C)CCCn1ccc2cc(-c3nc(S(C)(=O)=O)nc4[nH]ccc34)ccc21`, the inhibition entry in data set [4], in [6], in data set [9], in data set [10], in data set [14] and in data set [19] was “inactive” throughout. In addition, in [25], the inhibition result was “inactive”. The equilibrium dissociation constant (Kd) in [5] stood at 20.7 nM. Moreover, the Activity result in the data set with HUVEC was “Non-Toxic”; with MV4-11 [11], “Dose-Dependent Effect”; in the data set with MV4-11 [21] it was “Dose-Dependent Effect”; in the data set with MV4-11 [23], “Dose-Dependent Effect”; in the data set on MRC5, “Non-Toxic”. Further, the result (in the data set on MV4-11 [7]; in data set [17]; in data set [27]) was Active. Also, the result in [8], in [12], in data set [13], in data set [16], in [20] and in data set [22] was inactive. Besides, in data set [32], the result was inactive. The shift in melting temperature (ΔTm) in data set [15] stood at 5.02 °C; in data set [24] it was 7.66 °C; in [31], 6.5 °C. In addition, the inhibition entry in [18] was “Dose-Dependent Effect”; in data set [26], “Dose-Dependent Effect”; in [28], “Dose-Dependent Effect”; in data set [29] it was 100%. In addition, the IC50 in [1] was 26.9 nM; in the data set with MV4-11 [30], 890 nM. The 50% effective concentration (EC50) in data set [33] came to 120 nM.

As to `CCC(C)Nc1cc(-c2ccc3c(ccn3CCCN(C)C)c2)nc(S(C)(=O)=O)n1` (stereo not drawn), 288 nM corresponded to half-maximal inhibition in data set [1] (IC50).

In data set [3], `Cc1c(Nc2ccc(S(=O)(=O)N3CCN(C)CC3)cc2F)nc2ccc(-c3cnn(C4CC4)c3)cn2c1=O` registered a dissociation constant Kd of 71 nM.

Consider `CCOc1c(I)cc(C(N)=O)cc1OC`, for which, in data set [3], the dissociation constant (Kd) is 17900 nM.

`CCCNc1cc(-c2cc(OC)c3c(ccn3CCCN(C)C)c2)nc(S(C)(=O)=O)n1` yielded an IC50 in data set [1] of 63.8 nM.

Compound `CCCCNc1cc(-c2ccc3c(ccn3CCCN(C)C)c2)nc(S(C)(=O)=O)n1` yielded a concentration for half-maximal inhibition (IC50) in data set [1] of 114 nM.

Compound `CCNc1cc(-c2ccc3c(ccn3CCCN(C)C)c2)nc(S(C)(=O)=O)n1` showed an IC50 in data set [1] of 28.8 nM.

In the case of `CNc1cc(-c2ccc3[nH]ccc3c2)nc(S(C)(=O)=O)n1`, the Kd in data set [5] was found to be 2810 nM. In addition, the shift in melting temperature (ΔTm) in [15] was 1.29 °C; in [34], 1.22 °C; in data set [24], 2.4 °C; in [31], 1.67 °C. This compound yielded an IC50 in data set [1] of 698 nM.

Compound `CCCNc1cc(-c2ccc3c(ccn3CCCN(C)C)c2)nc([S+](C)[O-])n1` (stereo not drawn) displayed a half-inhibitory concentration (IC50) in data set [1] of 145 nM.

The compound `CNc1cc(-c2ccc3ccn(CCCN(C)C)c3c2)nc(S(C)(=O)=O)n1` had an IC50 in [1] of 2100 nM.

Consider `CN(C)CCCn1ccc2cc(-c3cc(N(C)C)nc(S(C)(=O)=O)n3)ccc21`, for which inhibition in data set [1] was half-maximal at 14700 nM (IC50).

As to `CCCNc1cc(-c2ccc3c(ccn3CCCN(C)C)c2)nc(S(C)(=O)=O)n1`, in [5], the affinity, expressed as Kd, was 49600 nM. Further, the ΔTm in data set [15] is 6.12 °C; in [34], 3.87 °C; in data set [24], 8.9 °C; in [31], 7.97 °C. This compound also showed an IC50 in data set [1] of 16 nM.

Turning to `CNc1cc(-c2ccc3c(ccn3CCCN(C)C)c2)nc([S+](C)[O-])n1` (stereo not drawn), the midpoint of inhibition in data set [1], the IC50, lay at 59.3 nM.

On to `CNc1cc(-c2cccc3ncccc23)nc(S(C)(=O)=O)n1`, for which, in data set [1], the IC50 was determined as 1700 nM.

With `CNc1cc(-c2ccccc2)nc(S(C)(=O)=O)n1`, half-maximal inhibition in data set [1] (IC50) required 7800 nM.
